One test addresses PKM2 (Homo sapiens, UniProt P14618). Briefly: PKM2 activation assay (ATP formation measured by Kinase Glo). The format is biochemical. The settings on record: 2 nM PKM2, 30 min pre-incubation, 75 μM ADP, 15 μM PEP, ATP formation after 30 min. As to the method: Compounds were pre-incubated with 2 nM PKM2 in reaction buffer (50 mM Tris-HCl, pH 8.0, 200 mM KCl, 30 mM MgCl2, 2 mM Dithiothreitol (DTT), 5% Dimethyl sulfoxide (DMSO)) for 30 min at ambient temperature. Adenosine diphosphate (ADP) and Phosphoenolpyruvic acid (PEP) were then added to final concentrations of 75 μM and 15 μM, respectively. After 30 min, Adenosine triphosphate (ATP) formation was measured by Kinase Glo (Promega, Madison, Wis.), and AC50 values were determined using Prism (GraphPad Software, Inc., La Jolla, Calif.).
On the technique in general: In Kinase-Glo more light means more ATP remaining.

The next test concerns A549 cells. Briefly: A549 cell viability by ATPlite assay. Type of test: cell-based. As to conditions: Homo sapiens, A549 cells in BME media lacking nonessential amino acids + 5% dialyzed serum, 72 hours. As to the method:
A549 cells were seeded at 5000 cells per well (in 96-well plate) in Basal Medium Eagle (BME) media lacking nonessential amino acids+5% dialyzed serum. After 18 hours, a negative control (i.e., DMSO only) or a representative compound in 0.1% final concentration DMSO was added. After 72 hours, cell viability was determined by ATPlite assay and EC50 values were determined using Prism GraphPad Software (La Jolla, Calif.).

pEC50: −log10 of the molar value.

The values that follow come from patent US20220162200A1, “PKM2 MODULATORS AND METHODS FOR THEIR USE” (Sumitomo Dainippon Pharma Oncology, Inc., priority 2019, published 2022).

What is called AC50 is the concentration giving half of the maximal activity seen. Low readings indicate greater potency, high ones weaker potency. Broadly, the pEC50 is the negative decadic logarithm of the EC50, by convention in mol/L.

Sequence of PKM2 (P14618 whole entry): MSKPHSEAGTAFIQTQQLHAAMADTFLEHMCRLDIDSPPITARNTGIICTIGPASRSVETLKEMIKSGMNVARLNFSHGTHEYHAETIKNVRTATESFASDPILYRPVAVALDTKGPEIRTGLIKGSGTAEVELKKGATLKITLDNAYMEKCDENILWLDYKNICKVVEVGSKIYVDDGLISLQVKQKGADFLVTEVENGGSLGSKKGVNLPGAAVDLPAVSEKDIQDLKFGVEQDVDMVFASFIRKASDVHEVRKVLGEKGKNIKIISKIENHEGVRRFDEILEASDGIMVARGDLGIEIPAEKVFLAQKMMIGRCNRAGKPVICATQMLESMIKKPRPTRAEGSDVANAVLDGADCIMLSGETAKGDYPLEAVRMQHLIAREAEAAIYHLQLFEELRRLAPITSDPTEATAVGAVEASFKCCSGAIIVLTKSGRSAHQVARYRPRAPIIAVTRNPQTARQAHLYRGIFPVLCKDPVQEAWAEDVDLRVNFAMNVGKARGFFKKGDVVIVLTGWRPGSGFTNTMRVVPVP

Turning to `Nc1cccc(Cl)c1CN(CCC1CCS(=O)(=O)CC1)C(=O)c1cc(C(F)(F)F)n[nH]1` [Compound Ia, N-(2-amino-6-chlorobenzyl)-N-(2-(1,1-dioxidotetrahydro-2H-thiopyran-4-yl)ethyl)-3-(trifluoromethyl)-1H-pyrazole-5-carboxamide], the AC50 on PKM2 was < 0.015 µM.

For the compound `O=C(c1cc(C(F)(F)F)n[nH]1)N(CCC1CCS(=O)(=O)CC1)Cc1c(F)cccc1Br` [Compound Ib, N-(2-bromo-6-fluorobenzyl)-N-(2-(1,1-dioxidotetrahydro-2H-thiopyran-4-yl)ethyl)-3-(trifluoromethyl)-1H-pyrazole-5-carboxamide], the negative logarithm of the EC50 (pEC50) with A549 cells was < 7.00. On PKM2, this compound yielded an AC50 of 0.015 to 0.05 µM.

With `Cc1ccc(F)c(CN(CCC2CCS(=O)(=O)CC2)C(=O)c2cc(C(F)(F)F)n[nH]2)c1` [Compound Ic, N-(2-(1,1-dioxidotetrahydro-2H-thiopyran-4-yl)ethyl)-N-(2-fluoro-5-methylbenzyl)-3-(trifluoromethyl)-1H-pyrazole-5-carboxamide], in the test on A549 cells, the pEC50 is 7.00 to 7.30. This compound yielded an AC50 at PKM2 of 0.015 to 0.05 µM.

For `O=C(c1cc(C(F)(F)F)n[nH]1)N(CCC1CCS(=O)(=O)CC1)Cc1c(F)ccc2cc[nH]c12` [Compound Id, N-(2-(1,1-dioxidotetrahydro-2H-thiopyran-4-yl)ethyl)-N-((6-fluoro-1H-indol-7-yl)methyl)-3-(trifluoromethyl)-1H-pyrazole-5-carboxamide], the AC50 on PKM2 is < 0.015 µM.

`O=C(c1cc(C(F)(F)F)n[nH]1)N(CCC1CCS(=O)(=O)CC1)Cc1c(F)ccc2c(Cl)c[nH]c12` [Compound Ie, N-(2-(1,1-dioxidotetrahydro-2H-thiopyran-4-yl)ethyl)-N-((3-chloro-6-fluoro-1H-indol-7-yl)methyl)-3-(trifluoromethyl)-1H-pyrazole-5-carboxamide]: at PKM2, the AC50 is < 0.015 µM.

For `NCc1ccc(F)c(CN(CCC2CCS(=O)(=O)CC2)C(=O)c2cc(C(F)(F)F)n[nH]2)c1` [Compound If, N-(2-(1,1-dioxidotetrahydro-2H-thiopyran-4-yl)ethyl)-N-(2-fluoro-5-aminomethylbenzyl)-3-(trifluoromethyl)-1H-pyrazole-5-carboxamide], the pEC50 in the test with A549 cells is < 7.00. Besides, the AC50 on PKM2 lay in the range of 0.015 to 0.05 µM.

With `O=C(c1cc(C(F)(F)F)n[nH]1)N(CCC1CCS(=O)(=O)CC1)Cc1c(F)ccc2cn[nH]c12` [Compound Ig, N-(2-(1,1-dioxidotetrahydro-2H-thiopyran-4-yl)ethyl)-N-((6-fluoro-1H-indazol-7-yl)methyl)-3-(trifluoromethyl)-1H-pyrazole-5-carboxamide], in the test with A549 cells, the negative logarithm of the EC50 (pEC50) was < 7.00. The AC50 at PKM2 lay within 0.015 to 0.05 µM.

`Nc1cccc(Br)c1CN(CCC1CCS(=O)(=O)CC1)C(=O)c1cc(C(F)(F)F)n[nH]1` [Compound Ih, N-(2-amino-6-bromobenzyl)-N-(2-(1,1-dioxidotetrahydro-2H-thiopyran-4-yl)ethyl)-3-(trifluoromethyl)-1H-pyrazole-5-carboxamide]: the AC50 on PKM2 is > 0.05 µM.

Consider `Nc1ccccc1CN(CCC1CCS(=O)(=O)CC1)C(=O)c1cc(C(F)(F)F)n[nH]1` [Compound Ii, N-(2-aminobenzyl)-N-(2-(1,1-dioxidotetrahydro-2H-thiopyran-4-yl)ethyl)-3-(trifluoromethyl)-1H-pyrazole-5-carboxamide], for which the pEC50 in the test on A549 cells is 7.00 to 7.30. Further, the AC50 on PKM2 is > 0.05 µM.

With `O=C(c1cc(C(F)(F)F)n[nH]1)N(CCC1CCS(=O)(=O)CC1)Cc1c(F)cccc1Cl` [Compound Ij, N-(2-chloro-6-fluorobenzyl)-N-(2-(1,1-dioxidotetrahydro-2H-thiopyran-4-yl)ethyl)-3-(trifluoromethyl)-1H-pyrazole-5-carboxamide], the AC50 on PKM2 is > 0.05 µM.
